Measurements from US10342430B2, “Device and method for in vivo noninvasive magnetic manipulation of circulating objects in bioflows” (BioVentures, LLC, priority 2007, dated 2019).

Key:
[1] = system: B16F10 cultured mouse melanoma cells; experiment: Trypan blue exclusion assay after ICG labeling of melanoma cells; assay type: cell-based; settings: staining 30 min at 37° C., 5% CO2; data not shown
Description: B16F10 cultured mouse melanoma cells (ATCC, Rockville, Md.) were used in this experiment. The cells were maintained using standard procedures (Ara et al. 1990, Weight et al. 2006, Zharov et al. 2006), including serial passage in phenol-free RPMI 1640 medium (Invitrogen, Carlsbad, Calif.) supplemented with 10% fetal bovine serum (FBS, Invitrogen). For comparison to the detection of unlabelled melanoma cells, the endogenous cell absorption was increased by staining with ICG (Akorn Inc., USA), a strongly absorbent dye in the NIR range, for 30 min at 37° C. and in the presence of 5% CO2.

[2] = In vivo PAFC monitoring of Lymphazurin in blood circulation (ear microvessel) after tail vein injection; design: species or system mouse; settings: 200 μl of 1% solution into tail vein; 50-μm ear microvessel; 650 nm
Description: In this experiment, a prototype PAFC system was used to detect Lymphazurin circulating in the blood vessels of a mouse ear.
The prototype PAFC system was built on the platform of an Olympus BX51 microscope (Olympus America, Inc.) and a tunable optical parametric oscillator (OPO) pumped by a Nd:YAG laser (Lotis Ltd., Minsk, Belarus). […] Laser energy was directed to the blood vessels using a conventional lens, or an optical fiber. PA waves emitted by the cells were detected by ultrasound transducers (unfocused Panametrics model XMS-310, 10 MHz; focused cylindrical Panametrics model V312-SM, 10 MHz, focused lengths of 6 mm, 12 mm, and 55 mm; and customized resonance transducers), and the ultrasound transducer outputs were conditioned by an amplifier (Panametrics model 5662, bandwidth 50 kHz-5 MHz; Panametrics model 5678, bandwidth 50 kHz-40 MHz; customized amplifiers with adjustable high and low frequency boundaries in the range to 50-200 KHz and 1-20 MHz, respectively; resonance bandwidth of 0.3-1.0 MHz). The amplifier output signals were recorded with a Boxcar data acquisition system (Stanford Research Systems, Inc.) and a Tektronix TDS 3032B oscilloscope, and were analyzed using standard and customized software. […] The signals from the oscilloscope screen were recorded with a digital camera (Sony, Inc.) and video camera (JVC, Inc.). […]

Row | SMILES | toxicity after labeling [1] | clearance of Lymphazurin from the blood [2] [min]
1 | CC1(C)C(/C=C/C=C/C=C/C=C2\N(CCCCS(=O)(=O)O)c3ccc4ccccc4c3C2(C)C)=[N+](CCCCS(=O)(=O)[O-])c2ccc3ccccc3c21 [ICG, Indocyanine Green] | No toxicity was observed | 
2 | CCN(CC)c1ccc(C(=C2C=CC(=[N+](CC)CC)C=C2)c2cc(S(=O)(=O)[O-])ccc2S(=O)(=O)[O-])cc1.[Na+] [Lymphazurin, Isosulfan Blue] |  | 50
